The record followed here is US11439707B2, “Hypocrellin derivative substituted both in a peri-position and in 2-position by amino, preparation method, and application thereof” (priority 2017, dated 2022).

Data set [1] in a line: absorption spectrum (maximum absorption wavelength, molar extinction coefficient). Format: physicochemical.
Data set [2] relates to Hela cells. In words: photo-cytotoxicity experiment (MTT, 635 nm laser). Format: cell-based. As for the experimental part:
Photo-cytotoxicity experiment on cell: cultured Hela cells were digested and pipetted with 0.25% trypsin and to prepare a single-cell suspension, the number of cells was adjusted to about 2×10^4 per milliliter, and 200 uL of the suspension was seeded in a well of a 96-well culture plate, which is placed in a 37° C. incubator containing 5% CO2 for cultivation. After the cells adhere to the wall, a supernatant culture solution was discarded, and photosensitizers of different concentrations, that is, the hematoporphyrin derivative HpD, the hypocrellin B HB, or HB-1c-PEG6 synthesized in example 3, were added in a strictly lucifugous condition in accordance with experimental designs, and the culture plate was placed in the 37° C. incubator containing 5% CO2 for further cultivation and incubation for 1 hour. Then, a semiconductor laser with a wavelength of 635 nm was used for irradiation, a power density was adjusted to 20 mW/cm^2, light beams were evenly and vertically applied onto the 96-well culture plate, and an irradiation time was 1000 S. In addition, each 96-well culture plate is provided with a blank group, and 6 holes were provided for in each condition. After irradiation, the culture plate was placed in the 37° C. incubator containing 5% CO2 for further cultivation and incubation for 24 hours, and then a cellular survival rate was measured. The cellular survival rate was measured by means of the MTT method. 20 uL of MTT was added to each well, wherein the MTT is MTT prepared with PBS and having a concentration of 5 mg/ml. The culture plate was placed in the 37° C. incubator containing 5% CO2 for further cultivation for 4 hours, after which the cultivation was terminated. A supernatant in the well was extracted and discarded carefully. Then, 150 uL of dimethyl sulfoxide (DMSO) was added to each well, and the culture plate was shaken by using a micro shaker for 10 minutes to fully dissolve a purple crystal substance. A wavelength of 570 nm was selected to measure an optical density value (i.e., OD value) of each well on a microplate reader, and the cellular survival rate was calculated in accordance with the following formula: cellular survival rate=OD value of an experimental group/OD value of a blank group×100%.

A short description of data set [3]: singlet oxygen efficiency test, reference rose bengal. Format: physicochemical.
Data set [4] relates to Hela cells. In words: dark cytotoxicity experiment (MTT). The following applies: 10 μM, incubated half hour, FIG. 12(a). As to the method:
Dark cytotoxicity experiment: cultured Hela cells were digested with 0.25% trypsin and pipetted to prepare a single-cell suspension, the number of cells was adjusted to about 2×10^4 per milliliter, and 200 uL of the suspension was seeded in a well of a 96-well culture plate, which is placed in a 37° C. incubator containing 5% CO2 for cultivation. […] A cellular survival rate was measured by means of the MTT method. 20 uL of MTT was added to each well, wherein the MTT is MTT prepared with PBS and having a concentration of 5 mg/ml. The culture plate was placed in the 37° C. incubator containing 5% CO2 for further cultivation for 4 hours, after which the cultivation was terminated. A supernatant in the well was extracted and discarded carefully. Then, 150 uL of dimethyl sulfoxide was added to each well, and the culture plate was shaken by using a micro shaker for 10 minutes to fully dissolve a purple crystal substance. A wavelength of 570 nm was selected to measure an optical density value (i.e., OD value) of each well on a microplate reader, and the cellular survival rate was calculated in accordance with the following formula: cellular survival rate=OD value of an experimental group/OD value of a blank group×100%.

A short description of data set [5]: photostability under 635 nm laser irradiation. Format: physicochemical. The following applies: 30 min, 20 mW/cm^2, FIG. 9. As for the experimental part:
FIG. 9 is a comparison diagram of photostabilities of the hypocrellin derivative prepared in the present invention and a commercial photosensitizer. […] However, in the same condition, after being irradiated with a 635 nm laser for 30 min at a light intensity of 20 mW/cm^2, maximum absorption performance of the commercial porphin photosensitizer Ce6 is decreased by 30% (curve c); and an absorption spectrum of the commercial hematoporphyrin photosensitizer HpD is decreased more, reaching about 50% (curve d). Therefore, in the same condition, the hypocrellin derivative prepared in the present invention has a better photostability than the commercial photosensitizers.

A short description of data set [6]: water solubility in normal saline. Format: physicochemical. Conditions: per milliliter of normal saline. As for the experimental part: Most of photosensitizer molecules disclosed in this patent contain a large number of hydrophilic groups, such as a polyethylene glycol chain, a quaternary ammonium salt, a carboxyl group, and a sulfonic acid group, etc., making the photosensitizer molecules have very high water solubility in a physiological condition; and experiments indicate that each milliliter of normal saline or glucose injection can dissolve more than 5 mg of such the photosensitizer molecules, presenting excellent water solubility. Therefore, the photosensitive drug can be well transported in blood vessels during intravenous injection, without causing a vascular blockage. HB-1c-C2-N+ prepared in example 4 contains two quaternary ammonium salts, and each milliliter of normal saline can dissolve more than 20 mg of photosensitizer molecules; HC-1c-PEG6 prepared in example 6 contains two 6-PEG chains, and each milliliter of normal saline can dissolve more than 20 mg of photosensitizer molecules; HB-8c prepared in example 19 contains two carboxyl groups, and each milliliter of normal saline can dissolve more than 10 mg of photosensitizer molecules; HB-13c prepared in example 35 contains two carboxyl groups, and each milliliter of normal saline can dissolve more than 10 mg of photosensitizer molecules; and HB-13c-PEG8 prepared in example 37 contains two 8-PEG chains, and each milliliter of normal saline can dissolve more than 20 mg of photosensitizer molecules. These photosensitizer molecules all present excellent water solubility.

Setting [7] is: 160 nM, 635 nm laser, FIG. 12(b).
[8] abbreviates: 240 nM, 635 nm red light, FIG. 16(b).
[9] abbreviates: 200 nM, 635 nm light, FIG. 14(b).

Compound `COc1c(O)c2c(=O)cc(OC)c3c4c(OC)cc(=O)c5c(O)c(OC)c6c(c(c1CC(C)=C6C(C)=O)c23)c54` [HB, hypocrellin B] gave a maximum absorption wavelength in data set [1] of 450 nm. Further, the Hela cells killed entry is recorded as “about 30%” in data set [2] (setting [7]); “about 20%” in data set [2] (160 nM, 635 nm laser, FIG. 12(b), listed as hypocrellin B); 30% in data set [2] (160 nM, red light, FIG. 17(b)); 60% in data set [2] (200 nM, red light, FIG. 18(b)); 30% in data set [2] (setting [8]).
`COc1c2c3c4c(c(OC)c(=O)c5c(O)cc(OC)c(c6c(OC)cc(O)c(c1=O)c63)c54)CC(C)=C2` [HC, deacetyl hypocrellin]: the Hela cells killed was 40% in data set [2] (140 nM, 635 nm light, FIG. 13(b)); 50% in data set [2] (setting [9]); 50% in data set [2] (240 nM, 635 nm light, FIG. 15(b)).
For the compound `COCCOCCOCCOCCOCCOCCOCCOCCOCCNC(=O)C1CCC(CNc2c3c4c5c(c(OC)c(=O)c6c(O)cc(OC)c(c7c(OC)cc(NCC8CCC(C(=O)NCCOCCOCCOCCOCCOCCOCCOCCOCCOC)CC8)c(c2=O)c74)c65)CC(C)=C3)CC1` (stereo not shown) [HC-13c-NH-PEG8], in data set [1], the maximum absorption wavelength came out at 630 nm and the molar extinction coefficient is on record as 33,500 M^−1cm^−1. In data set [3], this compound returned a singlet oxygen yield of 38%. The Hela cells killed entry in data set [2] (200 nM, red light, FIG. 18(b)) was “more than 85%”.
Turning to `COCCOCCOCCOCCOCCOCCOCCC(=O)OCCOCCNc1c2c3c4c(c(OC)c(=O)c5c(O)cc(OC)c(c6c(OC)cc(NCCOCCOC(=O)CCOCCOCCOCCOCCOCCOCCOC)c(c1=O)c63)c54)C(C(C)=O)C(C)=C2` (stereo not shown) [HB-1c-PEG6], in data set [1], the maximum absorption wavelength is 628 nm and the molar extinction coefficient is 34,500 M^−1cm^−1. For the same compound, the “cytotoxicity (dark toxicity)” value in data set [4] is listed as “basically non-cytotoxic”. In data set [3], this compound displayed a singlet oxygen yield of 34%. For the same compound, the Hela cells killed result in data set [2] (setting [7]) was “more than 90%”.
For `COc1c2c3c4c(c(NCCO)c(=O)c5c(NCCO)cc(OC)c(c6c(OC)cc(O)c(c1=O)c63)c54)C=C(C)C2` [HC-2c], in data set [1], the maximum absorption wavelength was 636 nm and the molar extinction coefficient was 31,000 M^−1cm^−1. In data set [3], this compound registered a singlet oxygen yield of 40%. In data set [5], the “decrease of absorption intensity at the maximum wavelength” value (shortened to “decrease of absorption intensity”) was “less than 10%”.
As for `COCCOCCOCCOCCOCCOCCOCCC(=O)OCCNc1c2c3c4c(c(OC)c(=O)c5c(NCCOC(=O)CCOCCOCCOCCOCCOCCOCCOC)cc(OC)c(c6c(OC)cc(O)c(c1=O)c63)c54)CC(C)=C2` [HC-2d-PEG6], in data set [1], the maximum absorption wavelength amounted to 624 nm and the molar extinction coefficient was 31,500 M^−1cm^−1. This compound displayed a singlet oxygen yield in data set [3] of 32%. For the same compound, the “decrease of absorption intensity” value in data set [5] is listed as “less than 10%”.
With `COc1c2c3c4c(c(NCCCC(=O)O)c(=O)c5c(NCCCC(=O)O)cc(OC)c(c6c(OC)cc(O)c(c1=O)c63)c54)C=C(C)C2C(C)=O` (stereo not shown) [HB-8c], the “amount dissolved by each milliliter of normal saline” value (from here on “amount dissolved by each milliliter”) in data set [6] is given as “more than 10 mg”. Further, in data set [1], the maximum absorption wavelength is 620 nm and the molar extinction coefficient is recorded as 29,500 M^−1cm^−1. The compound further came in with a singlet oxygen yield in data set [3] of 30%.
Consider `COc1c2c3c4c(c(NCCCC(=O)O)c(=O)c5c(NCCCC(=O)O)cc(OC)c(c6c(OC)cc(O)c(c1=O)c63)c54)C=C(C)C2` [HC-8c], for which, in data set [1], the maximum absorption wavelength came to 618 nm and the molar extinction coefficient is listed as 28,500 M^−1cm^−1. The singlet oxygen yield in data set [3] amounted to 27%. In data set [2] (setting [9]), the Hela cells killed result is “more than 85%”.
In the case of `COc1c(O)c2c(=O)cc(OC)c3c4c(OC)cc(=O)c5c(NCCCC(=O)O)c(NCCCC(=O)O)c6c(c(c1C(C(C)=O)C(C)=C6)c23)c54` (stereo not shown) [HB-8a], the “amount dissolved by each milliliter” value in data set [6] is “more than 5 mg”. In addition, in data set [1], the maximum absorption wavelength was found to be 622 nm and the molar extinction coefficient is recorded as 27,500 M^−1cm^−1. The same compound returned a singlet oxygen yield in data set [3] of 25%.
With `COc1c2c3c4c(c(NCC5CCC(C(=O)O)CC5)c(=O)c5c(NCC6CCC(C(=O)O)CC6)cc(OC)c(c6c(OC)cc(O)c(c1=O)c63)c54)C=C(C)C2C(C)=O` (stereo not shown) [HB-13c], the “amount dissolved by each milliliter” value in data set [6] is “more than 10 mg”. In data set [1], the maximum absorption wavelength worked out at 621 nm and the molar extinction coefficient is listed as 29,500 M^−1cm^−1. Also, the singlet oxygen yield in data set [3] is given as 30%. In addition, the Hela cells killed entry in data set [2] (setting [8]) is recorded as “more than 85%”.
As for `C=Cc1c(C)c2cc3nc(c(CC(=O)O)c4[nH]c(cc5nc(cc1[nH]2)C(C)=C5CC)c(C)c4C(=O)O)[C@@H](CCC(=O)O)[C@@H]3C` [Ce6, reference compound], in data set [1], the maximum absorption wavelength came out at 650 nm and the molar extinction coefficient entry is “less than 20000 M^−1cm^−1”. For the same compound, in data set [5], the “decrease of absorption intensity” value is on record as 30%.
Turning to `COc1c2c3c4c(c(NC(CO)C(=O)O)c(=O)c5c(O)cc(OC)c(c6c(OC)cc(NC(CO)C(=O)O)c(c1=O)c63)c54)C=C(C)C2C(C)=O` (stereo not shown) [HB-23d], in data set [1], the maximum absorption wavelength turned out to be 621 nm and the molar extinction coefficient is 21,500 M^−1cm^−1. Moreover, the singlet oxygen yield in data set [3] is 18%.
As to `COCCOCCOCCOCCOCCOCCOC(=O)C1CCC(Nc2c3c4c5c(c(OC)c(=O)c6c(NC7CCC(C(=O)OCCOCCOCCOCCOCCOCCOC)C7)cc(OC)c(c7c(OC)cc(O)c(c2=O)c74)c65)C(C(C)=O)C(C)=C3)C1` (stereo not shown) [HB-19d-PEG6], in data set [1], the maximum absorption wavelength stood at 636 nm and the molar extinction coefficient was 31,000 M^−1cm^−1. In data set [3], this compound had a singlet oxygen yield of 32%.
Regarding `COc1c(NCCCC(=O)NCCCC[N+](C)(C)C)c2c(=O)cc(OC)c3c4c(OC)cc(=O)c5c(O)c(NCCCC(=O)NCCCC[N+](C)(C)C)c6c(c(c1CC(C)=C6)c23)c54` [HC-8b-NH—C4-N^+], in data set [1], the maximum absorption wavelength was 626 nm and the molar extinction coefficient is 30,500 M^−1cm^−1. Also, the singlet oxygen yield in data set [3] stood at 32%.
As for `COc1c2c3c4c(c(NC5CCC(C(=O)O)CC5)c(=O)c5c(O)cc(OC)c(c6c(OC)cc(NC7CCC(C(=O)O)CC7)c(c1=O)c63)c54)C=C(C)C2C(C)=O` (stereo not shown) [HB-14d], in data set [1], the maximum absorption wavelength came out at 623 nm and the molar extinction coefficient is 27,000 M^−1cm^−1. In addition, in data set [3], the singlet oxygen yield came out at 24%.
